The target of the test is CDK2 (human) (UniProt P24941). Kind of test: Enzyme Assay.

Bounds are passed on as bounds.

A word on the IC50: it is the concentration that inhibits the measured activity by half. Lower therefore signals greater potency. The compound `Cc1c(N[C@H]2CC[C@H](N)CC2)nc2ccnn2c1Nc1ccc(C(=O)Nc2ccccc2)cc1` yielded an IC50 of under 100 µM.

In turn, `Cc1c(N[C@H]2CC[C@H](N)CC2)nc2ccnn2c1Nc1ccc(OCc2cccnc2)cc1` gave an IC50 of under 100 µM.

The compound `CCOC(=O)c1cccc(Nc2c(CC)c(N[C@H]3CC[C@H](N)CC3)nc3ccnn23)c1` came in with a half-maximal inhibitory concentration (IC50) of under 100 µM.

`Cc1c(N[C@H]2CC[C@H](N)CC2)nc2ccnn2c1Nc1ccc(-c2ccc(C#N)cc2)cc1` gave an IC50 of under 100 µM.

The compound `Cc1c(N[C@H]2CC[C@H](N)CC2)nc2ccnn2c1Nc1ccc(-c2ccc(N(C)C)cc2)cc1` came in with an IC50 of under 100 µM.

For the compound `CCOc1ccccc1Nc1c(C)c(N[C@H]2CC[C@H](N)CC2)nc2ccnn12`, the IC50 is under 100 µM.

As to `CCOc1ccc(Nc2c(C)c(N(C)C3CCCNC3)nc3ccnn23)cc1` (stereo not given), the half-maximal inhibitory concentration (IC50) is under 100 µM.

In the case of `CCOc1ccc(Nc2c(C)c(N[C@H]3CC[C@H](N)CC3)nc3c(N)cnn23)cc1`, the IC50 was under 100 µM.

Regarding `CCOc1ccc(-c2ccc(Nc3c(C)c(N[C@H]4CC[C@H](N)CC4)nc4ccnn34)cc2)cc1`, the concentration for half-maximal inhibition (IC50) was under 100 µM.

For `CCOc1ccc(Nc2cc(N[C@H]3CC[C@H](N)CC3)nc3c(I)cnn23)cc1`, the half-maximal inhibitory concentration (IC50) is under 100 µM.

In the case of `CCOc1cccc(Nc2c(CC)c(N[C@H]3CC[C@H](N)CC3)nc3ccnn23)c1`, the 50% inhibitory concentration (IC50) was under 100 µM.

`CC(C)c1c(N[C@H]2CC[C@H](N)CC2)nc2ccnn2c1Nc1ccc(F)c(Cl)c1` displayed an IC50 of under 100 µM.

With `CCOc1ccc(Nc2c(C)c(NC3CCCNC3)nc3c(C4CC4)cnn23)cc1` (stereo not given), the IC50 is under 100 µM.

As to `CCc1c(N[C@H]2CC[C@H](N)CC2)nc2ccnn2c1Nc1cccc(C)c1`, the half-maximal inhibitory concentration (IC50) is under 100 µM.

`Cc1c(NC2CCCNC2)nc2ccnn2c1Nc1ccccc1F` (stereo not given): the IC50 is under 100 µM.

The compound `Cc1c(N[C@H]2CC[C@H](N)CC2)nc2ccnn2c1Nc1ccc(OCCC2CCCCC2)cc1` returned a half-maximal inhibitory concentration (IC50) of under 100 µM.

`Cc1c(N[C@H]2CC[C@H](N)CC2)nc2ccnn2c1Nc1ccc(-c2ccc(N)cc2)cc1` displayed a 50% inhibitory concentration (IC50) of under 100 µM.

The compound `COc1ccc(Nc2c(C)c(N[C@H]3CC[C@H](N)CC3)nc3ccnn23)cc1` registered an IC50 of under 100 µM.

With `Fc1ccc(Nc2cc(NC3CCCNC3)nc3c(Br)cnn23)cc1Cl` (stereo not given), the half-maximal inhibitory concentration (IC50) is under 100 µM.

Consider `Cc1c(N[C@H]2CC[C@H](N)CC2)nc2ccnn2c1Nc1ccc2[nH]ncc2c1`, for which the IC50 was under 100 µM.

Compound `Cc1c(N[C@H]2CC[C@H](N)CC2)nc2ccnn2c1Nc1ccc(OCc2cccc(N)c2)cc1` registered an IC50 of under 100 µM.

Regarding `CCc1c(N[C@H]2CC[C@H](N)CC2)nc2ccnn2c1Nc1cccc(Cl)c1`, the IC50 was under 100 µM.

`CCS(=O)(=O)c1ccc(-c2ccc(Nc3c(C)c(N[C@H]4CC[C@H](N)CC4)nc4ccnn34)cc2)cc1` gave an IC50 of under 100 µM.

The compound `Cc1c(N[C@H]2CC[C@H](N)CC2)nc2ccnn2c1Nc1ccc(OCc2ccccc2Cl)cc1` gave an IC50 of under 100 µM.

Turning to `CCOc1ccc(Nc2c(C)c(NC3CCCNC3)nc3c(C(C)C)cnn23)cc1` (stereo not given), the IC50 is under 100 µM.

For `Cc1c(N[C@H]2CC[C@H](N)CC2)nc2ccnn2c1Nc1ccc(OC(C)C)cc1`, the IC50 was under 100 µM.

`Cc1c(NC2CCCNC2)nc2ccnn2c1Nc1ccc(-c2ccc(N)cc2)cc1` (stereo not given): the half-maximal inhibitory concentration (IC50) was under 100 µM.

Consider `Cc1ccc(Nc2c(C)c(N[C@H]3CC[C@H](N)CC3)nc3ccnn23)cc1C`, for which the 50% inhibitory concentration (IC50) was under 100 µM.

`Cc1c(NC2CCCNC2)nc2ccnn2c1Nc1ccc(-c2ccsc2)cc1` (stereo not given) registered a half-inhibitory concentration (IC50) of under 100 µM.

As for `CCc1c(N[C@H]2CC[C@H](N)CC2)nc2ccnn2c1Nc1ccc(OC)c(OC)c1`, the half-inhibitory concentration (IC50) is under 100 µM.

`Cc1c(N[C@H]2CC[C@H](N)CC2)nc2ccnn2c1Nc1ccc(-c2cc3ccccc3s2)cc1`: the half-maximal inhibitory concentration (IC50) was under 100 µM.

As for `CCOc1ccc(Nc2c(C)c(N[C@H]3CCN(Cc4ccccc4)C3)nc3ccnn23)cc1`, the 50% inhibitory concentration (IC50) is under 100 µM.

`CCc1c(N[C@H]2CC[C@H](N)CC2)nc2ccnn2c1Nc1ccc(Oc2ccc(C)cc2)cc1` had an IC50 of under 100 µM.

Compound `Cc1c(N[C@H]2CC[C@H](N)CC2)nc2ccnn2c1Nc1ccc(OCC2CCCO2)cc1` (stereo not given in full) yielded a 50% inhibitory concentration (IC50) of under 100 µM.

`CCOc1ccc(Nc2c(C)c(N[C@H]3CC[C@H](N)CC3)nc3c(C(=O)Nc4ccncc4)cnn23)cc1` returned a 50% inhibitory concentration (IC50) of under 100 µM.

In turn, `Cc1c(N[C@H]2CC[C@H](N)CC2)nc2ccnn2c1Nc1cccc(Br)c1` had a 50% inhibitory concentration (IC50) of under 100 µM.

In turn, `Cc1c(N[C@H]2CC[C@H](N)CC2)nc2ccnn2c1Nc1ccc(-c2cccc(C(F)(F)F)c2)cc1` yielded an IC50 of under 100 µM.

Turning to `CC(=O)c1ccc(-c2ccc(Nc3c(C)c(N[C@H]4CCCNC4)nc4ccnn34)cc2)s1`, the IC50 was under 100 µM.

Take `CCOc1ccc(Nc2c(C)c(N[C@H]3CC[C@H](N)CC3)nc3c(C4CC4)cnn23)cc1`: the IC50 was under 100 µM.

As for `Cc1c(N[C@H]2CC[C@H](N)CC2)nc2ccnn2c1Nc1ccc(-c2ccc(CO)cc2)cc1`, the IC50 was under 100 µM.

Source of the values: the Kinase Knowledgebase extract (Sharma et al. 2016).
